In general, Kd refers to the free concentration of one partner at which half of the binding sites on the other are occupied at equilibrium, for simple one-to-one binding. Read a high Kd as weaker binding.

Residues, ends and D or L forms follow the SMILES beside them.

Data on four molecules can be found in patent publication US20210032304A1, “FIBROBLAST GROWTH FACTOR ANALOGS AND USES THEREOF” (University of Florida Research Foundation, Inc., priority 2018, published 2021).

Test [1] concerns radiation damage (sub-TBI) in Swiss male mice. As to the kind of experiment: Sub-TBI irradiation model, survival and body weight over 30 days. It is filed as in vivo. The conditions noted are these: for dose needed to gain survival benefit: sub-TBI NIH Swiss model. The method, then: 150 outbred stock (NIS) Swiss males (8-11 weeks) were subjected to 5 sub-TBI doses (0, 18, 19.5, 20.5, 21.5 Gy). Three single dosages of FGF-P were administered 24 hr post-IR (5.0, 10, and 20 mg/kg), and two single dosages of FGF-PT were administered 24 hr post-IR (10 and 20 mg/kg). One dosage of FGF2 (0.3 mg/kg) and a saline vehicle control was also administered. Animals were followed for signs of distress, survivors, and weight loss/gain for 30 days. Survivors at the end of 30 days were euthanized.
Radiation doses were chosen to bracket the highest dose with few or no deaths (LD20) and the lowest dose with few or no survivors (LD80), thus ensuring a range that includes the LD50 and statistically delivers the highest accuracy and precision per animal.

The target of test [2] is T1, FGFR-1 alpha IIIc (Homo sapiens, UniProt P11362). As to the kind of experiment: SPR (Horiba XelPlex), receptor immobilised, analyte in flow; given as 'associative binding constants'.
For test [3], the target named is FGFR-2 alpha IIIc (Homo sapiens, UniProt P21802). The description is as above.
Test [4] has as its target T1, FGFR-1 alpha IIIc. As to the kind of experiment: SPR (Horiba XelPlex), ratio to rhFGF2 on the same receptor.
In test [5] the target is T2, FGFR-1 alpha IIIb, P11362.
T2 chain: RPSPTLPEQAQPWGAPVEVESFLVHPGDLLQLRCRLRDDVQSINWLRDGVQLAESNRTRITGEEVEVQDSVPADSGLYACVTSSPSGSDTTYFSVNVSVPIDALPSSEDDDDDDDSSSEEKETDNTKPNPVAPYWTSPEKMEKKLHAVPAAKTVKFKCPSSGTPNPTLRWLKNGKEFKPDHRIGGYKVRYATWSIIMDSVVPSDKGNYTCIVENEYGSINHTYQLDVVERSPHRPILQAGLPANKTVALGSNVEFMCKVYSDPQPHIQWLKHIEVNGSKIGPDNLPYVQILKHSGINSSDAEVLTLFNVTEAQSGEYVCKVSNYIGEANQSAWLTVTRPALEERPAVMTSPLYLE
The test is described as above.

The target in test [6] is T2, FGFR-1 alpha IIIb, P11362. Briefly: SPR (Horiba XelPlex), receptor immobilised, analyte in flow; given as 'associative binding constants'.
Setting [7] is: 18 Gy sub-TBI, single dose 24 hr post-IR, different doses, 30 days.
The mark [8] stands for this setting: 19.5 Gy sub-TBI, all doses, single dose 24 hr post-IR.
[9] abbreviates: 20.5 Gy sub-TBI, many doses, particularly FGF-P 5-20 mg/kg.

As to `CC(C)C[C@@H]1NC(=O)[C@H](C)NC(=O)[C@H](C(C)C)NC(=O)[C@H](Cc2ccc(O)cc2)NC(=O)[C@H](Cc2c[nH]c3ccccc23)NC(=O)[C@H](CO)NC(=O)[C@H]([C@@H](C)O)NC(=O)[C@H](Cc2ccc(O)cc2)NC(=O)[C@H](CCCCN)NC(=O)[C@H](CCCNC(=N)N)NC(=O)[C@H](CO)NC(=O)[C@H](CCCNC(=N)N)NC(=O)[C@H](Cc2ccc(O)cc2)NC(=O)[C@@H](N)CSSC[C@@H](C(=O)O)NC(=O)[C@H](CCCNC(=N)N)NC(=O)[C@H](CCCCN)NC1=O` [FGF-PT] (HELM PEPTIDE1{C.Y.R.S.R.K.Y.T.S.W.Y.V.A.L.K.R.C}$PEPTIDE1,PEPTIDE1,1:R3-17:R3$$$V2.0; N-terminus and C-terminus assumed), the survival result in test [1] (setting [7]), in test [1] (setting [8]) and in test [1] (setting [9]) was “Improved survival” in each case. The weight recovery entry in test [1] (setting [7]) was “weight recovery”; in test [1] (19.5 Gy sub-TBI, different doses, recovery after severe weight loss), “weight recovery”; in test [1] (20.5 Gy sub-TBI, different doses, recovery after very severe weight loss), “weight recovery”. Moreover, the “dose needed to gain survival benefit” value in test [1] was 10 mg/kg.

Take “recombinant human basic FGF (rhFGF2) (from UniProt P09038 143-288) (ligand)”: the results for the Kd in test [2] and in test [3] were 0.83 nM and 1.7 nM, respectively.

Consider rhFGF2: recombinant human basic FGF, for which the survival result in test [1] (setting [8]) and in test [1] (setting [9]) was “Improved survival” throughout. In addition, the “dose needed to gain survival benefit” value in test [1] was found to be 0.3 mg/kg.

For YRSRKYTSWYVALKR (modifications not checked) [FGF-PT], the fold of binding constant against rhFGF2 in test [4] and in test [5] was 1000 fold in each case. For the same molecule, the Kd worked out at 1000 nM in test [2] and 1500 nM in test [6].
